From PubChem BioAssay (NCI)
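Results reflect a 48-hour exposure of cells in 96-well plates to compound at five concentrations. TGI marks complete inhibition of growth.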

Tests used:
Experiment in all cases: inhibition of tumour cell growth, NCI panel, 48 h
SK-OV-3 ovarian = system: SK-OV-3 ovarian
M14 melanoma = system: M14 melanoma
PC-3 prostate = system: PC-3 prostate
EKVX NSCLC = system: EKVX NSCLC
SW-620 colon = system: SW-620 colon
MDA-N = system: MDA-N
HCT-15 colon = system: HCT-15 colon
786-0 renal = system: 786-0 renal
KM12 colon = system: KM12 colon
IGROV1 ovarian = system: IGROV1 ovarian
SF-295 CNS = system: SF-295 CNS
SNB-75 CNS = system: SNB-75 CNS

SMILES	TGI (SK-OV-3 ovarian)	TGI (M14 melanoma)	TGI (PC-3 prostate)	TGI (EKVX NSCLC)	TGI (SW-620 colon)	TGI (MDA-N)	TGI (HCT-15 colon)	TGI (786-0 renal)	TGI (KM12 colon)	TGI (IGROV1 ovarian)	TGI (SF-295 CNS)	TGI (SNB-75 CNS)
COc1ccc(C(C)NNC(=O)c2ccncc2)cc1F (stereo unspecified)	> 100 µM	> 100 µM	> 100 µM	> 100 µM	> 100 µM	> 100 µM	> 100 µM	> 100 µM	> 100 µM	> 100 µM	> 100 µM	> 100 µM
COC1=CC(=O)c2c(cc(COP(=O)(N(C)CCBr)N(C)CCBr)n2C)C1=O	8.3 µM	2.56 µM	> 83.2 µM	6.55 µM	7.58 µM	2.77 µM	2.28 µM	2.87 µM	24.1 µM	19.2 µM	3.62 µM	0.971 µM
Nc1ccc(-c2nc3ccccc3s2)cc1	> 100 µM	34 µM	29.2 µM	87.4 µM	41.1 µM	35.2 µM	40.4 µM	29.7 µM	47.6 µM	48.7 µM	> 74.9 µM	58.1 µM
Cc1nn(-c2ccccn2)c2c1C(SC#N)=C(C=O)CC2	61.5 µM	31.7 µM	33.8 µM	36.1 µM	59.3 µM	38.6 µM	34 µM	25.1 µM	32.7 µM	23.7 µM	> 100 µM	30.1 µM
CCOC(=O)C1=C(C)N(c2ccc(C)cc2)C2(O)C=CC(=O)C3=C(O)c4ccccc4C(=O)C312 (stereo unspecified)	> 100 µM	> 100 µM	> 100 µM	> 100 µM	61.1 µM	69.5 µM	> 100 µM	> 100 µM	> 100 µM	45.5 µM	> 100 µM	68.6 µM
OC(O)(C(F)(F)F)C(F)(F)F	> 100 µM	> 100 µM	> 100 µM	> 100 µM	> 100 µM	> 100 µM	> 100 µM	> 100 µM	> 100 µM	> 100 µM	> 100 µM	> 100 µM
CC(C)c1nccn1Cc1ccc(Cl)cc1Cl	> 100 µM	> 100 µM	> 100 µM	> 100 µM	> 100 µM	> 100 µM	> 100 µM	> 100 µM	> 100 µM	> 100 µM	> 100 µM	85 µM
COC(=O)C[C@H](CCSC)NC(=O)C[C@H](CCSC)NC(=O)C[C@H](CCSC)NC(=O)OC(C)(C)C	40 µM	> 100 µM	> 100 µM	> 100 µM	> 100 µM	> 100 µM	> 100 µM	> 100 µM	> 100 µM	> 100 µM	51.4 µM	29 µM
C=C1C(=O)O[C@H]2[C@H]([C@H](C)CCCC(C)=O)O[C@H]([C@@]3(C)CCC(=O)O3)C[C@@H]12	> 100 µM	> 100 µM	> 100 µM	> 100 µM	> 100 µM	> 100 µM	> 100 µM	> 100 µM	> 100 µM	> 100 µM	> 100 µM	> 100 µM
CCOC(=O)N1C(=S)C(C(=O)OC)(C(=O)OC)N=C1C	> 100 µM	> 100 µM	> 100 µM	> 100 µM	> 100 µM	> 100 µM	> 100 µM	> 100 µM	> 100 µM	> 100 µM	> 100 µM	> 100 µM
CSc1ccccc1P(CCP(c1ccccc1SC)c1ccccc1SC)c1ccccc1SC	> 55.4 µM	> 100 µM	> 100 µM	97.7 µM	> 100 µM	> 100 µM	> 100 µM	> 100 µM	> 100 µM	> 100 µM	> 95.7 µM	> 55.6 µM
COc1ccc(C2NC(=O)Nc3c2c(=O)oc2c3ccc3ccccc32)cc1 (stereo unspecified)	> 100 µM	> 100 µM	> 100 µM	96.8 µM	> 100 µM	> 100 µM	> 100 µM	> 100 µM	> 100 µM	> 100 µM	> 100 µM	75.8 µM
COc1cc2c(cc1O)CC[C@@H]1C2CC[C@@]2(C)C1CC[C@@H]2O (stereo partly specified)	> 100 µM	> 100 µM	> 100 µM	44.6 µM	> 100 µM	0.574 µM	49 µM	> 100 µM	61.8 µM	> 100 µM	16.5 µM	22.1 µM
CC1(C)CC(=O)C(=CN2C(=O)CNC2=S)C(=O)C1	> 100 µM	> 100 µM	> 100 µM	> 100 µM	> 100 µM	> 100 µM	> 100 µM	> 100 µM	> 100 µM	> 100 µM	> 100 µM	> 100 µM
C/C(=C\c1ccccc1)C(=O)NCc1ccc(C(=O)NCCc2c[nH]c3ccccc23)cc1	> 100 µM	> 100 µM	> 100 µM	> 100 µM	> 100 µM	> 100 µM	> 100 µM	> 100 µM	> 100 µM	> 100 µM	> 100 µM	> 100 µM
c1ccc2c(c1)c1c3n2-c2cc(on2)C3CCC1 (stereo unspecified)	> 100 µM	> 100 µM	> 100 µM	> 100 µM	> 100 µM	> 100 µM	> 100 µM	> 100 µM	> 100 µM	> 100 µM	> 100 µM	> 100 µM
CCOC(=O)CCC(C(=O)OCC)n1nnc2cc(Nc3c(C)[n+]([O-])c4ccc(Cl)cc4[n+]3[O-])ccc21 (stereo unspecified)	> 100 µM	> 100 µM	> 100 µM	97.1 µM	> 100 µM	> 100 µM	> 100 µM	> 100 µM	> 100 µM	> 100 µM	> 100 µM	> 100 µM
CC(C)CC(NC(=O)C(COc1ccc([N+](=O)[O-])cc1)Cc1ccccc1)C(=O)Nc1ccccc1 (stereo unspecified)	28.5 µM	60.8 µM	> 100 µM	91.4 µM	> 100 µM	> 100 µM	> 100 µM	29.5 µM	21.5 µM	31.2 µM	26.2 µM	7.84 µM
